Data from article PMC3424241, “The Octadecaneuropeptide ODN Protects Astrocytes against Hydrogen Peroxide-Induced Apoptosis via a PKA/MAPK-Dependent Mechanism” (PLoS ONE, 2012).

Key:
cultured rat astrocytes [1] = assay: Cell survival after H2O2, FDA fluorescence; assay type: cell-based
Method: Secondary cultures of rat cortical astrocytes were prepared as previously described [64]with minor modifications. Briefly, cerebral hemispheres from newborn Wistar rats were collected in DMEM/F12 (2∶1; v/v) culture medium supplemented with 2 mM L-glutamine, 1‰ insulin, 5 mM HEPES, 0.4% glucose and 1% of the antibiotic-antimycotic solution. The tissues were dissociated mechanically with a syringe equipped with a 1-mm gauge needle, and filtered through a 100-µm sieve (Falcon, Franklin Lakes, NJ, USA). […] When cultures were confluent, astrocytes were isolated by shaking overnight the flasks on an orbital agitator. Adhesive cells were detached by trypsination and preplated for 5 min to discard contaminating microglial cells. Then, the non-adhering astrocytes were harvested and plated on 35-mm hydrophilic surface Petri dishes at a density of 3×10^5 cells/ml. […] The cells were incubated at 37°C in a humid atmosphere (5% CO2). […] All experiments were performed on 5- to 7-day-old secondary cultures.
(§1) Cultured cells were incubated at 37°C with fresh serum-free culture medium in the absence or presence of H2O2 and/or ODN for 1 h. Cells were then incubated for 10 min at 37°C with 0.3 µg/ml calcein-AM (producing green fluorescence in living cells), rinsed twice with culture medium without probe and examined on an inverted microscope (Leica, Heidelberg, Germany) equipped with a double pass filter.
For quantification of surviving astrocytes, cells were incubated for 8 min with 15 µg/ml FDA-AM, rinsed twice with phosphate-buffered saline (PBS) and lysed with a Tris/HCl solution containing 1% sodium dodecyl sulfate (SDS). Fluorescence was measured with excitation at 485 nm and emission at 538 nm, using a microplate reader (Bio-Tek FLx 800).

cultured rat astrocytes [2] = assay: Living-cell staining and morphology with calcein-AM after H2O2; assay type: cell-based; details: ODN 0.1 nM pretreatment 10 min, then 1 h 300 µM H2O2; calcein-AM staining
Method: (§2) Secondary cultures of rat cortical astrocytes were prepared as previously described [64]with minor modifications. Briefly, cerebral hemispheres from newborn Wistar rats were collected in DMEM/F12 (2∶1; v/v) culture medium supplemented with 2 mM L-glutamine, 1‰ insulin, 5 mM HEPES, 0.4% glucose and 1% of the antibiotic-antimycotic solution. The tissues were dissociated mechanically with a syringe equipped with a 1-mm gauge needle, and filtered through a 100-µm sieve (Falcon, Franklin Lakes, NJ, USA). Dissociated cells were resuspended in culture medium supplemented with 10% FBS, plated in 175-cm^2 flasks (Greiner Bio-one GmbH, Frickenhausen, Germany) and incubated at 37°C in a 5% CO2/[…] atmosphere. When cultures were confluent, astrocytes were isolated by shaking overnight the flasks on an orbital agitator. Adhesive cells were detached by trypsination and preplated for 5 min to discard contaminating microglial cells. […]
as §1

Bax = Bax mRNA level, quantitative RT-PCR; assay type: cell-based, rat; details: ODN 0.1 nM
Method: as §2, with “cells. Then, the non-adhering astrocytes were harvested and plated on 35-mm hydrophilic surface Petri dishes at a density of 3×10^5 cells/ml.” for “cells.”
Cultured cells were incubated at 37°C for 1 h with fresh serum-free medium in the absence or presence of test substances. […] The amount of Bax and Bcl-2 cDNA in each sample was calculated by the comparative threshold cycle (Ct) method and expressed as 2^exp(−ΔΔCt) using glyceraldehyde-3-phosphate dehydrogenase as an internal control.

[3] = system: glutathione (GSH) in cultured astrocytes; assay: Intracellular glutathione content, mBCl fluorescence; assay type: cell-based, rat
Method: Secondary cultures of rat cortical astrocytes were prepared as previously described [64]with minor modifications. Briefly, cerebral hemispheres from newborn Wistar rats were collected in DMEM/F12 (2∶1; v/v) culture medium supplemented with 2 mM L-glutamine, 1‰ insulin, 5 mM HEPES, 0.4% glucose and 1% of the antibiotic-antimycotic solution. The tissues were dissociated mechanically with a syringe equipped with a 1-mm gauge needle, and filtered through a 100-µm sieve (Falcon, Franklin Lakes, NJ, USA). Dissociated cells were resuspended in culture medium supplemented with 10% FBS, plated in 175-cm^2 flasks (Greiner Bio-one GmbH, Frickenhausen, Germany) and incubated at 37°C in a 5% CO2/[…] atmosphere. When cultures were confluent, astrocytes were isolated by shaking overnight the flasks on an orbital agitator. Adhesive cells were detached by trypsination and preplated for 5 min to discard contaminating microglial cells. Then, the non-adhering astrocytes were harvested and plated on 35-mm hydrophilic surface Petri dishes at a density of 3×10^5 cells/ml. For measurement of cell survival, caspase-3 activity and mitochondrial activity, cells were plated in hydrophilic surface 24-well plates at a density of 8×10^4 cells/ml. The cells were incubated at 37°C in a humid atmosphere (5% CO2). After 5 days (DIV5), more than 99% of the cells were labeled with antibodies against glial fibrillary acidic protein [65]. All experiments were performed on 5- to 7-day-old secondary cultures.
Reduced GSH was measured by using the thiol-reactive probe mBCl. At the end of the treatment period, the culture medium was removed and the cells were incubated with the mBCl probe (40 µM) at 37°C for 30 min and then washed twice with PBS. Fluorescence intensity was measured with excitation at 360 nm and emission at 485 nm, using a microplate reader (Bio-Tek FLx 800).

caspase-3 = system: caspase-3; set-up: method as in PMID 21599667; details: subnanomolar concentrations of ODN, cultured astrocytes; cited from earlier work

ODN: octadecaneuropeptide, endozepine derived from diazepam-binding inhibitor; endogenous ligand of central-type benzodiazepine and metabotropic receptors; synthesized by Fmoc procedure (QATVGDVNTDRPGLLDLK; Octadecaneuropeptide; UniProt P11030 34-51, looked up)
time-course of protection against H2O2-induced cell injury (cultured rat astrocytes [1]; ODN 0.1 nM, 300 µM H2O2, FDA fluorescence): totally blocked H2O2-induced cell injury during the first 60 min
duration of the protective effect with fresh doses of peptide (cultured rat astrocytes [1]; ODN 0.1 nM, refills of 0.1 nM after 30, 60, 90, 120 and 150 min, 300 µM H2O2): ≥ 150 min
maximum effect (survival) (cultured rat astrocytes [1]; ODN 0.1 nM, 10 min pre-incubation, 1 h 300 µM H2O2, FDA fluorescence): ~95%
time after onset of peptide administration at which the protective action vanished (cultured rat astrocytes [1]; single dose of ODN 0.1 nM, 300 µM H2O2): 180 min
delay of H2O2-induced cell death (cultured rat astrocytes [1]; time-course, ODN 0.1 nM, 300 µM H2O2): approximately 1 h
effect on H2O2-induced morphological changes and loss of calcein labeling (cultured rat astrocytes [2]): totally prevented the deleterious effects of H2O2
effect on H2O2-induced increase of Bax mRNA levels (Bax; 10 min pre-incubation, 1 h 300 µM H2O2): totally prevented the increase of Bax mRNA levels induced by H2O2
effect on Bax mRNA levels, peptide alone (Bax; 1 h, RT-PCR): had no effect on Bax mRNA levels
effect on H2O2-induced depletion of GSH (mBCl fluorescence) ([3]; ODN 0.1 nM pretreatment, 1 h 300 µM H2O2): prevented the depletion of mBCl fluorescence induced by H2O2
effect on intracellular GSH content (mBCl fluorescence), peptide alone ([3]; graded ODN 1 fM to 0.1 nM, 1 h): dose-related increase in mBCl fluorescence intensity
effect on H2O2-induced caspase-3 activation (caspase-3): inhibit H2O2-induced caspase-3 activation
